Results published in US10383925B2, “Cancer antigen EEF2” (International Institute of Cancer Immunology, Inc., priority 2009, dated 2019).
Ends that are not written are not given here.

Each compound was assayed on CD8-positive T cells (assay: Interferon-γ activity, T cells with peptide-pulsed HLA-A*2402 molecule-expressing T2 cells). Conditions: HLA-A*2402 molecule-expressing T2 cells pulsed with peptide, 5 hours.
Type: cell-based
Description: T cells were incubated together with HLA-A*2402 molecule-expressing T2 cells pulsed with eEF2 peptides (eEF2409-417, eEF2412-420 and eEF2701-709 peptides) in the presence of brefeldin A (Sigma) at 37° C. for 5 hours. After washing with PBS, CD3 and CD8 molecules which are cell surface antigens were stained by PerCP-conjugated anti-CD3 (BD Biosciences) and PE-conjugated anti-CD8 (Caltag, Burlingame, Calif.) antibodies on ice for 15 minutes. Subsequently, cells were fixed using Cytofix (BD Biosciences) on ice for 20 minutes, and intracellular IFN-γ was reacted with an FITC-conjugated anti-IFN-γ antibody (BD Biosciences) on ice for 30 minutes. Frequency of IFN-γ-positive cells present in CD8-positive T cells was analyzed using a flow cytometer.
For RFDVHDVTL [eEF2701-709], the “interferon-γ activity (frequency of IFN-γ-positive cells in CD8-positive T cells)” value (“interferon-γ activity” for short) was “increase the interferon-γ activity”. For “RFYAFGRVF (listed as Homo sapiens) [eEF2409-417]”, the “interferon-γ activity” value was “increase the interferon-γ activity”. In the case of AFGRVFSGL [eEF2412-420], the “interferon-γ activity” value was “increase the interferon-γ activity”.

These compounds were tested on colon cancer SW480 cells (assay: Cytotoxic activity (51Cr release) of peptide-induced CTL against endogenous eEF2 gene-expressing cells). Conditions: SW480 (HLA-A*2402 on surface) vs AZ-521 and MiaPaCa2 (no HLA-A*2402) as negative control.
Type: cell-based
In the case of AYLPVNESF [eEF2786-794], the “cytotoxic activity against endogenous eEF2 gene-expressing cells” value was “specifically impair the cells which express the eEF2 and have the HLA-A*2402 molecule”.

What follows are compounds tested on CTL from healthy donors having an HLA-A*0201 molecule (assay: Cytotoxic activity of CTL induced by HLA-A*0201-restricted eEF2 peptides). Conditions: PBMC of HLA-A*0201 donors stimulated with peptide; 6th day after the final peptide stimulation.
Type: cell-based, human
Description: From T cell clones established as described above, CD8-positive T cells were purified using CD8 Microbeads to prepare effector cells. Subsequently, target cells were incubated with ^51Cr-labeled sodium chromate (Amersham Biosciences Corp., NJ) for 1 hour to label the cells. They were then mixed with the effector cells so that the ratio of cell count was 1:1, 3:1 and 9:1 of CTL/target cell (E/T) ratio, and the mixture was allowed to stand for 4 hours. The percentage of cells lysed was calculated according to the following equation: Specific lysis %=[(cpm experimental release−cpm spontaneous release)/(cpm maximal release−cpm spontaneous release)]×100. T2-2402 cells pulsed with an eEF2786-794 pep tide were used as the target cells, and T2-2402 cells not pulsed with the eEF2786-794 peptide (SEQ ID NO:7) as a negative control.
The experiments were carried out in much the same way as in the above Example 3. Thus, blood was taken from healthy donors having an HLA-A*0201 molecule, peripheral blood mononuclear cells were separated, and the first stimulation was carried out using the six candidate peptides (stimulator: self-PBMC). Subsequently, the peptide stimulation on the second day and later was carried out at intervals of 8 to 13 days (stimulator: allo B-LCL 3 mg/ml). Furthermore, IL-2 was added every 2 days after the second stimulation at a final concentration of 20 IU/ml. Cytotoxicity was measured on the 6th day after the final peptide stimulation.
For `CC[C@H](C)[C@H](NC(=O)[C@H](Cc1ccc(O)cc1)NC(=O)[C@H](CCSC)NC(=O)[C@H](CCSC)NC(=O)[C@@H](N)CC(C)C)C(=O)N[C@@H](CO)C(=O)N[C@@H](CCCCN)C(=O)N[C@@H](CCSC)C(=O)N[C@H](C(=O)O)C(C)C` [eEF2394-402], the cytotoxic activity was “increase of cytotoxic activity was observed”. With `CC[C@H](C)[C@H](NC(=O)[C@@H]1CCCN1C(=O)[C@H](CCC(=O)O)NC(=O)[C@H](CCSC)NC(=O)[C@H](CC(C)C)NC(=O)[C@@H](N)CCCNC(=N)N)C(=O)N[C@@H](Cc1ccc(O)cc1)C(=O)N[C@@H](CC(C)C)C(=O)N[C@H](C(=O)O)C(C)C` [eEF2739-747] the cytotoxic activity was “increase of cytotoxic activity was observed”. In the case of `CC(C)C[C@H](NC(=O)[C@H](CCC(N)=O)NC(=O)[C@H](CS)NC(=O)[C@H](Cc1ccccc1)NC(=O)[C@@H](NC(=O)[C@H](CCCNC(=N)N)NC(=O)[C@@H]1CCCN1C(=O)[C@H](CC(C)C)NC(=O)[C@@H](N)CCCCN)[C@@H](C)O)C(=O)O` [eEF2284-292], the cytotoxic activity was “increase of cytotoxic activity was observed”. `CC[C@H](C)[C@H](NC(=O)[C@H](CCC(=O)O)NC(=O)[C@H](CC(N)=O)NC(=O)[C@H](CC(C)C)NC(=O)[C@@H](N)Cc1ccc(O)cc1)C(=O)N[C@@H](CCCCN)C(=O)N[C@@H](CC(=O)O)C(=O)N[C@@H](CO)C(=O)N[C@H](C(=O)O)C(C)C` [eEF2671-679] was tested, and the cytotoxic activity was “increase of cytotoxic activity was observed”. For `CC(C)C[C@H](NC(=O)[C@H](CCCNC(=N)N)NC(=O)[C@H](CCCCN)NC(=O)[C@H](CC(C)C)NC(=O)CNC(=O)[C@H](CCC(=O)O)NC(=O)[C@@H](NC(=O)[C@H](CC(C)C)NC(=O)[C@@H](N)CCCCN)C(C)C)C(=O)O` [eEF2519-527], the cytotoxic activity was “increase of cytotoxic activity was observed”. With `CC[C@H](C)[C@H](N)C(=O)N[C@@H](CC(C)C)C(=O)N[C@H](C(=O)N[C@@H](CC(=O)O)C(=O)N[C@H](C(=O)N[C@H](C(=O)N[C@@H](CCCCN)C(=O)NCC(=O)N[C@H](C(=O)O)C(C)C)[C@@H](C)O)[C@@H](C)CC)[C@@H](C)O` [eEF2661-669] the cytotoxic activity was “increase of cytotoxic activity was observed”. `CC[C@H](C)[C@H](NC(=O)[C@@H]1CCCN1C(=O)[C@H](CC(=O)O)NC(=O)[C@H](CC(C)C)NC(=O)[C@H](CCSC)NC(=O)[C@@H](N)CC(C)C)C(=O)N[C@@H](Cc1ccccc1)C(=O)N[C@@H](CCCCN)C(=O)N[C@@H](CC(C)C)C(=O)O` [eEF2292-300 2M9L] was tested, and the cytotoxic activity was “increase cytotoxicity”. With `CC[C@H](C)[C@H](NC(=O)[C@@H]1CCCN1C(=O)[C@H](CC(=O)O)NC(=O)[C@H](CC(C)C)NC(=O)[C@H](CC(C)C)NC(=O)[C@@H](N)CC(C)C)C(=O)N[C@@H](Cc1ccccc1)C(=O)N[C@@H](CCCCN)C(=O)N[C@@H](CC(C)C)C(=O)O` [eEF2292-300 2L9L] the cytotoxic activity was “increase cytotoxicity”. `CC[C@H](C)[C@H](NC(=O)[C@@H]1CCCN1C(=O)[C@H](CC(=O)O)NC(=O)[C@H](CC(C)C)NC(=O)[C@H](CCSC)NC(=O)[C@@H](N)CC(C)C)C(=O)N[C@@H](Cc1ccccc1)C(=O)N[C@@H](CCCCN)C(=O)N[C@H](C(=O)O)C(C)C` [eEF2292-300 2M] was tested, and the cytotoxic activity was “increase cytotoxicity”. In the case of `CC[C@H](C)[C@H](NC(=O)[C@@H]1CCCN1C(=O)[C@H](CC(=O)O)NC(=O)[C@H](CC(C)C)NC(=O)[C@H](CC(C)C)NC(=O)[C@@H](N)CC(C)C)C(=O)N[C@@H](Cc1ccccc1)C(=O)N[C@@H](CCCCN)C(=O)N[C@H](C(=O)O)C(C)C` [eEF2292-300 2L], the cytotoxic activity was “increase cytotoxicity”.

These compounds were tested on CD8-positive T cells of donors having the HLA-A*0206 molecule (assay: Interferon-γ production, donors having the HLA-A*0206 molecule). Conditions: not given.
Type: cell-based
Description: T cells were incubated together with HLA-A*0201 molecule-expressing T2 cells pulsed with HLA-A*0201-restricted eEF2 peptides in the presence of brefeldin A (Sigma) at 37° C. for 5 hours. After washing with PBS, CD3 and CD8 molecules which are cell surface antigens were stained by PerCP-conjugated anti-CD3 (BD Biosciences) and PE-conjugated anti-CD8 (Caltag, Burlingame, Calif.) antibodies on ice for 15 minutes. Subsequently, cells were fixed using Cytofix (BD Biosciences) on ice for 20 minutes, and intracellular IFN-γ was reacted with an FITC-conjugated anti-IFN-γ antibody (BD Biosciences) on ice for 30 minutes. Frequency of IFN-γ-positive cells present in CD8-positive T cells was analyzed using a flow cytometer.
Next, evaluation was carried out as to whether the above 6 peptides and the eEF2292-300 peptide (SEQ ID NO:14) can bind to an HLA-A*0206 molecule and produce interferon-γ. The experiments were carried out in the same way as in the above method, except that donors having the HLA-A*0206 molecule were used.
For “LILDPIFKV (listed as Homo sapiens) [eEF2292-300]”, the “production of interferon-γ” value was “also serve as an HLA-A*0206-restricted peptide”.
